Reference: patent publication US20230416329A1, “A PEPTIDE WITH DISULFIDE BONDS AND INHIBITORY ACTIVITY AGAINST SERINE PROTEASES, DERIVED HYBRID PEPTIDES THEREOF, AND USES THEREOF” (INSTITUTE OF MATERIA MEDICA , CHINESE ACADEMY OF MEDICAL …, priority 2020, published 2023)
One block for each compound: values may come before it. Bridge positions count the residues as written; N and C are the ends. Ends that are not written are not given here.

How the values were obtained:
normal ICR mice [1] = assay: In vivo hypoglycemic activity of GLP-1 analogues, subcutaneous administration, oral glucose loading; parameters: species or system mouse; details: subcutaneous 1 μmol/kg, mean
Protocol: FIG. 21. In vivo hypoglycemic activities of GLP-1 analogues by subcutaneous administration. Normal ICR mice were subcutaneously injected with GLP-1 and its analogues or corresponding volumes of saline (1.0 μmol/kg, n=10). After 30 min, glucose solution (2 g/kg) was administered by gavage, and blood was collected from the tail tip at 30, 60, and 120 min after glucose administration. Blood glucose was measured using glucose oxidase method, and blood glucose values and area under the blood glucose curve (AUC) were calculated at each timepoint.
The day before the experiment, all of the animals were fasted for 15-16 hours with water ad libitum. On the day of the experiment, the animals were randomly divided according to body weight (n=10). Firstly, the blood was collected from the tail tip at 0 hour, and then the animals were administered subcutaneously with GLP-1 analog (SEQ ID NOs: 194-201, 1 μmol/kg) or saline. After 30 minutes, the animals were administered by gavage with glucose solution (2 g/kg), and the blood was collected from the tail tip at 30, 60, and 120 minutes later. Blood glucose was measured using glucose oxidase method. The blood glucose and area under the blood glucose-time curve (AUC) were calculated.

normal ICR mice [2] = assay: In vivo hypoglycemic activity of GLP-1 analogues, duodenal administration, oral glucose loading; parameters: species or system mouse
Protocol: FIG. 22. In vivo hypoglycemic activities of GLP-1 analogues by duodenal administration. Normal ICR mice were anesthetized with inhalation of ether, and the duodenum was surgically removed and injected with GLP-1 and its analogues or a corresponding volume of saline ([…], n=9-11), and finally the incision was sewed. After 15 min, glucose solution (2 g/kg) was administered by gavage, and blood was collected from the tail tips at 15, 30, and 60 min after glucose administration. Blood glucose was measured using glucose oxidase method, and blood glucose values and area under the blood glucose curve (AUC) were calculated at each timepoint.
Drug delivery technology can use enteric coating technology to achieve oral administration targeting the small intestine. In order to test the feasibility of direct small intestinal administration of GLP-1, the present invention designs duodenal administration. The experimental process is as follows: The day before the experiment, all of the animals were fasted for 15-16 hours with water ad libitum. On the day of the experiment, the animals were randomly divided according to body weight (n=9-11 or 14-15 for combined administration). Firstly, the blood was collected from the tail tip at 0 hours, and then the animals were anesthetized by inhaling ether. A small incision was made near the underside of the stomach using surgical scissors, and the duodenum was carefully removed and administered with GLP-1 analogs (SEQ ID NOs: 194-209, 10 μmol/kg) or saline. Finally, the wound was sutured. After 15 minutes, the glucose solution (2 g/kg) was administered by gavage, and the blood were collected from the tail tips at 15, 30, and 60 minutes after glucose administration. Blood glucose was measured using the glucose oxidase method. The blood glucose at each moment and area under the blood glucose-time curve (AUC) were calculated.
AUC mg×h/dL)=(BG0+BG15)×15/60+(BG15+BG30)×15/60+(BG30+BG60)×30/60. BG0, BG15, BG30, and BG60 represent blood glucose levels at 0, 15, 30, and 60 minutes after glucose loading, respectively.

elastase = elastase (Sus scrofa, UniProt P00772); assay: in vitro; details: isolated enzyme elastase
Procedure, shortened: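 Peptides and elastase (0.5 μg/μL solution) each pre-warmed 5 min at 37° C, then mixed; aliquots taken at 1.5 to 60.0 min and quenched with 10% TFA. Remaining intact peptide quantified as RP-HPLC peak area.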

DPP-IV = DPP-IV (Homo sapiens, UniProt P27487); assay: Tolerance of GLP-1 and its analogues to DPP-IV (RP-HPLC remaining peak area); type: in vitro ADME; details: peptide 25 μM, DPP-IV 0.5 ng/μL, 37° C.
Protocol: Mix by centrifugation at 8000 rpm for 30 seconds.
(2) Arrange a certain volume of 0.005 μg/μL DPP-IV solution in another sterile EP.

[3] = Stability of GLP-1 and its analogues in human serum; details: 25% (v/v) human serum
[4] = biological target: T1, interaction of PCSK9-LDLR (Homo sapiens, UniProt Q8NBP7); assay: PCSK9-LDLR in vitro binding assay (inhibitory rate); details: in vitro
T1 construct: purchased MBL Company, Beijing, China CY-8150
Procedure, shortened: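 Polypeptide (final 50 μM) pre-incubated 20 min at room temperature with PCSK9 (final 75 ng/mL), then run in a PCSK9-LDLR binding kit read at OD450/540 nm. Inhibition rate calculated relative to a solvent control (water or DMSO) lacking polypeptide.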

[5] = system: P407 induced hyperlipidemia mice; assay: Duodenal injection of PCSK9 inhibitory peptide, serum total cholesterol in P407 induced hyperlipidemia mice; type: in vivo, mouse
Protocol: The experimental polypeptide sample was prepared using PEG400 with a final concentration of 20 μmol/kg and the final concentration of PEG400 is 50% (w/v). The control group was saline containing PEG400 (50%).
Normal ICR mice were fasted overnight with water ad libitum. The next day, all of the mice were intraperitoneally injected with poloxamer 407 (P407, 500 mg/kg) to establish a model of lipid metabolism disorder. Six mice were intraperitoneally injected with saline as a normal control (Nor). Normal feeding resumed after 2 hours. The model animals were randomly divided into model group (Con) and polypeptide groups according to body weight, and the blood was collected from tail tip (0 min). Then, the animals were anesthetized with ether for duodenal exposure surgery. At the same time, a sample or saline containing PEG400 was injected through the duodenum. Finally, the wound was sutured. The blood was collected from tail tip at 15, 30, 60, and 90 minutes after administration to determine the serum total cholesterol level.

[6] = system: P407-induced hyperlipidemia mice; assay: Subcutaneous injection of PCSK9 inhibitory peptide, serum total cholesterol in P407-induced hyperlipidemia mice; type: in vivo, mouse; details: for serum total cholesterol (TC) level after subcutaneous injection (in words): 2 μmol/kg single s.c., P407-induced hyperlipidemia mice
Procedure, shortened: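 ICR mice, fasted overnight, received intraperitoneal P407 at 500 mg/kg. After 24 h they received subcutaneous peptide at 2 μmol/kg in 20% PEG400; vehicle-treated and normal groups served as controls. Serum total cholesterol was measured at various times after dosing.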

[7] = duodenal 10 μmol/kg, normal ICR mice, after oral glucose loading
[8] = pH 8, Remaining peak area (%)/elastase

Chain of DPP-IV (P27487 whole entry, species assumed): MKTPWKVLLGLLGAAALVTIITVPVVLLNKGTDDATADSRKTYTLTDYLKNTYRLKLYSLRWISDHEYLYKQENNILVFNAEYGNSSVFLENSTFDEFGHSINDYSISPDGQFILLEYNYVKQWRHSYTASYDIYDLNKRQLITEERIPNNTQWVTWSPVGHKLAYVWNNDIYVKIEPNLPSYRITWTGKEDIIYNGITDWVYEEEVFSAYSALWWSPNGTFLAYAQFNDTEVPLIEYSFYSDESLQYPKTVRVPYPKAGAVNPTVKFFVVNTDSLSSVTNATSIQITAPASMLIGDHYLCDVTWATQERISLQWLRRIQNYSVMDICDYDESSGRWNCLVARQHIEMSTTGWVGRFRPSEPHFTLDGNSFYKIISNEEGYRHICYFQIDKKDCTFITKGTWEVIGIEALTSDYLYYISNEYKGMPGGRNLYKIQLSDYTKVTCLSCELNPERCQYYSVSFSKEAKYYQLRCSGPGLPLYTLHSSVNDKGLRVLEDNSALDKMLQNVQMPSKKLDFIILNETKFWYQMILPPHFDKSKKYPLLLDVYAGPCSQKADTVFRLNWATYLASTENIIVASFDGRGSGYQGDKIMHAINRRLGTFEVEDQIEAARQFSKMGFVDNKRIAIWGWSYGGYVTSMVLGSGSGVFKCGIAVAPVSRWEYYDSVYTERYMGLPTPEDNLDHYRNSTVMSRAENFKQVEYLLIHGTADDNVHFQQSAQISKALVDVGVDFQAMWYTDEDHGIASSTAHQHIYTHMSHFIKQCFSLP
Chain of elastase (P00772 27-266): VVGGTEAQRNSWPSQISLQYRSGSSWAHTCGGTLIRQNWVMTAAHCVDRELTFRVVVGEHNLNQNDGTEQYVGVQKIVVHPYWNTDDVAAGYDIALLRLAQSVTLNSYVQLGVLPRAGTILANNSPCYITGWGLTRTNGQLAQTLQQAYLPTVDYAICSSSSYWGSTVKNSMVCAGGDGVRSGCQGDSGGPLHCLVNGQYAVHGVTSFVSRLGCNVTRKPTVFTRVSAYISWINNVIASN

Remaining peak area (%)/elastase (elastase; 1 h, 60 μM, pH 8): 17.8 ± 2.0%
remaining at 0.025 h, 60 μM (elastase; [8]): 90.2 ± 3%
remaining at 0.05 h, 60 μM (elastase; [8]): 86 ± 1.7%
remaining at 0.075 h, 60 μM (elastase; [8]): 79.7 ± 3.5%
remaining at 0.1 h, 60 μM (elastase; [8]): 79.1 ± 2.2%
remaining at 0.15 h, 60 μM (elastase; [8]): 74.5 ± 2.2%
remaining at 0.25 h, 60 μM (elastase; [8]): 63.3 ± 0.7%
remaining at 0.5 h, 60 μM (elastase; [8]): 49.4 ± 0.9%
remaining at 1 h, 60 μM (elastase; [8]): ~20%
Remaining peak area (%)/human serum ([3]; 0.0 h, peptide 0.03 mM, 37° C.): 100.0 ± 0.0%
remaining at 0.5 h, 0.03 mM ([3]; human, pH 7): 94.6 ± 5.3%
remaining at 2 h, 0.03 mM ([3]; human, pH 7): 69.3 ± 4%
remaining at 4 h, 0.03 mM ([3]; human, pH 7): 43.4 ± 1.7%
remaining at 8 h, 0.03 mM ([3]; human, pH 7): 5.7 ± 0.1%
remaining at 12 h, 0.03 mM ([3]; human, pH 7): 2.2 ± 0.1%
Compound: CC[C@H](C)[C@H](NC(=O)[C@H](Cc1ccccc1)NC(=O)[C@H](CCC(=O)O)NC(=O)[C@H](CCCCN)NC(=O)[C@H](C)NC(=O)[C@H](C)NC(=O)[C@H](CCC(N)=O)NC(=O)CNC(=O)[C@H](CCC(=O)O)NC(=O)[C@H](CC(C)C)NC(=O)[C@H](Cc1ccc(O)cc1)NC(=O)[C@H](CO)NC(=O)[C@H](CO)NC(=O)[C@@H](NC(=O)[C@H](CC(=O)O)NC(=O)[C@H](CO)NC(=O)[C@@H](NC(=O)[C@H](Cc1ccccc1)NC(=O)[C@@H](NC(=O)CNC(=O)[C@H](CCC(=O)O)NC(=O)[C@H](C)NC(=O)[C@H](Cc1c[nH]cn1)NC(=O)CNC(=O)CNC(=O)[C@@H](NC(=O)[C@@H]1CCCN1C(=O)[C@@H](NC(=O)CNC(=O)CNC(=O)[C@H](CCC(N)=O)NC(=O)[C@@H]1CSSC[C@H](NC(=O)[C@@H](N)CC(C)C)C(=O)N[C@@H]([C@@H](C)O)C(=O)N[C@@H](C)C(=O)N[C@@H](CO)C(=O)N[C@@H]([C@@H](C)CC)C(=O)N2CCC[C@H]2C(=O)N2CCC[C@H]2C(=O)N[C@@H]([C@@H](C)CC)C(=O)N1)[C@@H](C)CC)[C@@H](C)CC)[C@@H](C)O)[C@@H](C)O)C(C)C)C(=O)N[C@@H](C)C(=O)N[C@@H](Cc1c[nH]c2ccccc12)C(=O)N[C@@H](CC(C)C)C(=O)N[C@H](C(=O)N[C@@H](CCCCN)C(=O)NCC(=O)N[C@@H](CCCNC(=N)N)C(=O)NCC(=O)NCC(=O)N[C@@H](CCCCN)C(=O)O)C(C)C [EC12-D-GLP-1]
AUC (blood glucose-time curve) (normal ICR mice [1]; 0-120 min): 159.1 mg·h/dL
Blood glucose 0 min (normal ICR mice [1]; 0 min, oral glucose loading 2 g/kg): 63.3 mg/dL
Blood glucose 30 min (normal ICR mice [1]; 30 min after oral glucose loading): 103.3 mg/dL
Blood glucose 60 min (normal ICR mice [1]; 60 min after oral glucose loading): 77.2 mg/dL
Blood glucose 120 min (normal ICR mice [1]; 120 min after oral glucose loading): 67.6 mg/dL
reduction of blood glucose at 15 minutes compared with Nor (normal ICR mice [2]; [7]): 11.9%
reduction of blood glucose at 30 minutes compared with Nor (normal ICR mice [2]; [7]): 19.9%
reduction of blood glucose at 60 minutes compared with Nor (normal ICR mice [2]; [7]): 17.4%
AUC (blood glucose-time curve) (normal ICR mice [2]; duodenal injection 10 μmol/kg, 0-60 min, mean): 123.6 mg·h/dL
Blood glucose 0 min (normal ICR mice [2]; duodenal injection 10 μmol/kg, 0 min, mean): 75.6 mg/dL
Blood glucose 15 min (normal ICR mice [2]; duodenal injection 10 μmol/kg, 15 min after oral glucose loading, mean): 120.8 mg/dL
Blood glucose 30 min (normal ICR mice [2]; duodenal injection 10 μmol/kg, 30 min, mean): 129.8 mg/dL
Blood glucose 60 min (normal ICR mice [2]; duodenal injection 10 μmol/kg, 60 min, mean): 141.1 mg/dL
Remaining peak area (%)/DPP-IV (DPP-IV; 0.0 h): 100.0 ± 0.0%
remaining at 0.5 h, 25 μM (DPP-IV; isolated DPP-IV enzyme in buffer, pH 8, 0.5 h): 79.1 ± 2.6%
remaining at 2 h, 25 μM (DPP-IV; isolated DPP-IV enzyme in buffer, pH 8, 2.0 h): 78.5 ± 1.1%
remaining at 4 h, 25 μM (DPP-IV; isolated DPP-IV enzyme in buffer, pH 8, 4.0 h): 81.7 ± 0.8%
remaining at 8 h, 25 μM (DPP-IV; isolated DPP-IV enzyme in buffer, pH 8, 8.0 h): 79.2 ± 2.6%
remaining at 12 h, 25 μM (DPP-IV; isolated DPP-IV enzyme in buffer, pH 8, 12.0 h): 80.7 ± 0.3%

inhibitory activity on the interaction between PCSK9 and LDLR (in words) ([4]; listed as SEQ ID NO: 231): good inhibitory effects in vitro
Compound: Trp-Glu-Glu-Tyr-Leu-Asp-Tyr-Val-Gly-Ile-Cys-Thr-Ala-Ser-Ile-Pro-Pro-Ile-Cys-Gln-Gly-Thr-Val-Phe-Thr-Ser (WEEYLDYVGICTASIPPICQGTVFTS; disulfide 11-19 (inferred)) [PCSK9_6EC]
inhibitory activity on the interaction between PCSK9 and LDLR (in words) [4]: good inhibitory activity on the interaction between PCSK9 and LDLR
hypolipidemic activity after duodenal administration (in words) ([5]; 20 μmol/kg, P407 induced hyperlipidemia mice): did not show hypolipidemic activity
TC 15 min ([5]; serum, duodenal injection 20 μmol/kg, 15 min, mean ± sd): 3166 ± 343 µg/mL
TC 30 min ([5]; serum, duodenal injection 20 μmol/kg, 30 min, mean ± sd): 2931 ± 673 µg/mL
TC 60 min ([5]; serum, duodenal injection 20 μmol/kg, 60 min, mean ± sd): 3239 ± 515 µg/mL
TC 90 min ([5]; serum, duodenal injection 20 μmol/kg, 90 min, mean ± sd): 3177 ± 443 µg/mL
serum total cholesterol (TC) level after subcutaneous injection (in words) [6]: reduced serum TC level
serum total cholesterol (TC) level after subcutaneous injection (in words) ([6]; listed as SEQ ID NO: 231): excellent lowering lipid (total cholesterol) activities in vivo
TC 15 min ([6]; serum, subcutaneous 2 μmol/kg, 15 min after administration, mean ± sd): 2438 ± 610 µg/mL
TC 30 min ([6]; serum, subcutaneous 2 μmol/kg, 30 min after administration, mean ± sd): 2369 ± 574 µg/mL
TC 60 min ([6]; serum, subcutaneous 2 μmol/kg, 60 min after administration, mean ± sd): 2345 ± 638 µg/mL
TC 90 min ([6]; serum, subcutaneous 2 μmol/kg, 90 min after administration, mean ± sd): 2274 ± 586 µg/mL
